This is an account of results in ChEMBL document CHEMBL3286207, “Development of a new class of proteasome inhibitors with an epoxyketone warhead: Rational hybridization of non-peptidic belactosin derivatives and peptide epoxyketones” (Bioorg Med Chem, 2014).

One test relates to HCT-116. Description: Cytotoxicity against human HCT116 cells assessed as growth inhibition after 72 hrs by CCK-8 assay. It is filed as functional, cell-based. The settings on record: HCT-116, 72 h.
The target in another test is 26S proteasome. The experiment in a line: Inhibition of chymotrypsin-like of human 20S proteasome using chromophoric Suc-LLVY-AMC as substrate after 60 mins by fluorescence assay. The test is classed as protein-complex assay.

As usually defined, the IC50 is the concentration that inhibits the measured activity by half.

Turning to `CC[C@H](C)[C@@H]1C(=O)O[C@H]1C(=O)NCCC(COCc1ccccc1)COCc1ccccc1`, in the test on HCT-116, the IC50 was more than 10000 nM.
In the case of `CC(=O)N[C@@H](CC(=O)NCCCCOCc1ccccc1)C(=O)N[C@@H](CC(C)C)C(=O)[C@@]1(C)CO1`, the 50% inhibitory concentration (IC50) in the test on HCT-116 was found to be 2900 nM; against 26S proteasome it was 5700 nM.
Take `CC(=O)N[C@@H](CC(=O)NCCC(COCc1ccccc1)COCc1ccccc1)C(=O)N[C@@H](CC(C)C)C(=O)[C@@]1(C)CO1`: the IC50 in the test with HCT-116 is 1900 nM; against 26S proteasome, 2300 nM.
